What was measured:
Assay in all cases: relative viability (nuclei count vs DMSO), 5 days (fraction); higher = more cells survive
[1] = system: NCI-H647
In short: (§1)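 Nuclei were stained with Hoechst during a one-step fixation (final 0.05% Triton X-100, 1% formaldehyde, 1 ug/ml Hoechst) carried out 5 days after dosing, then counted on 4× images. The cells, lung cancer lines in 1536-well plates, had been dosed by pin tool the day after seeding with one drug alone or a fixed anchor-drug dose plus five library-drug doses (not always all listed) in √10 steps. Relative viability is the nuclei count in treated wells divided by that in vehicle wells, and each value is the median of duplicate plates.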

[2] = system: EKVX
In short: as §1

[3] = system: NCI-H1734
In short: as §1

[4] = system: A-427
In short: as §1

[5] = system: LU99A
In short: as §1

[6] = system: EPLC-272H
In short: as §1

[7] = system: ChaGo-K-1
In short: as §1

[8] = system: LK-2
In short: as §1

[9] = system: NCI-H460
In short: as §1

[10] = system: HCC-44
In short: as §1

[11] = system: NCI-H2405
In short: as §1

[12] = system: NCI-H1993
In short: as §1

[13] = system: HARA
In short: as §1

[14] = system: NCI-H1650
In short: as §1

[15] = system: NCI-H1755
In short: as §1

[16] = system: SW 900
In short: as §1

[17] = system: COR-L 105
In short: as §1

[18] = system: EMC-BAC-2
In short: as §1

[19] = system: NCI-H358
In short: as §1

[20] = system: RERF-LC-KJ
In short: as §1

[21] = system: NCI-H522
In short: as §1

[22] = system: NCI-H1792
In short: as §1

CCNC(=O)c1noc(-c2cc(C(C)C)c(O)cc2O)c1-c1ccc(CN2CCOCC2)cc1 [Luminespib] + CC(=O)c1c(C)c2cnc(Nc3ccc(N4CCNCC4)cn3)nc2n(C2CCCC2)c1=O [Palbociclib] (partner 0.5 µM)
relative viability ([1]; first compound 0.002 µM): 0.442 | relative viability ([1]; first compound 0.006325 µM): 0.396 | relative viability ([1]; first compound 0.02 µM): 0.207 | relative viability ([1]; first compound 0.06325 µM): 0.0721 | relative viability ([1]; first compound 0.2 µM): 0.0558 | relative viability ([2]; first compound 0.002 µM): 0.431 | relative viability ([2]; first compound 0.006325 µM): 0.364 | relative viability ([2]; first compound 0.02 µM): 0.184 | relative viability ([2]; first compound 0.06325 µM): 0.342 | relative viability ([2]; first compound 0.2 µM): 0.138 | relative viability ([3]; first compound 0.002 µM): 0.359 | relative viability ([3]; first compound 0.006325 µM): 0.389 | relative viability ([3]; first compound 0.02 µM): 0.334 | relative viability ([3]; first compound 0.06325 µM): 0.204 | relative viability ([3]; first compound 0.2 µM): 0.144 | relative viability ([4]; first compound 0.002 µM): 0.516 | relative viability ([4]; first compound 0.006325 µM): 0.488 | relative viability ([4]; first compound 0.02 µM): 0.503 | relative viability ([4]; first compound 0.06325 µM): 0.467 | relative viability ([4]; first compound 0.2 µM): 0.258 | relative viability ([5]; first compound 0.002 µM): 0.369 | relative viability ([5]; first compound 0.006325 µM): 0.379 | relative viability ([5]; first compound 0.02 µM): 0.272 | relative viability ([5]; first compound 0.06325 µM): 0.428 | relative viability ([5]; first compound 0.2 µM): 0.417 | relative viability ([6]; first compound 0.002 µM): 0.285 | relative viability ([6]; first compound 0.006325 µM): 0.317 | relative viability ([6]; first compound 0.02 µM): 0.284 | relative viability ([6]; first compound 0.06325 µM): 0.311 | relative viability ([6]; first compound 0.2 µM): 0.0905 | relative viability ([7]; first compound 0.002 µM): 0.813 | relative viability ([7]; first compound 0.006325 µM): 0.888 | relative viability ([7]; first compound 0.02 µM): 0.963 | relative viability ([7]; first compound 0.06325 µM): 0.925 | relative viability ([7]; first compound 0.2 µM): 0.82 | relative viability ([8]; first compound 0.002 µM): 0.679 | relative viability ([8]; first compound 0.006325 µM): 0.563 | relative viability ([8]; first compound 0.02 µM): 0.351 | relative viability ([8]; first compound 0.06325 µM): 0.0849 | relative viability ([8]; first compound 0.2 µM): 0.0745 | relative viability ([9]; first compound 0.002 µM): 0.288 | relative viability ([9]; first compound 0.006325 µM): 0.126 | relative viability ([9]; first compound 0.02 µM): 0.0359 | relative viability ([9]; first compound 0.06325 µM): 0.0096 | relative viability ([9]; first compound 0.2 µM): 0.0106 | relative viability ([10]; first compound 0.002 µM): 0.942 | relative viability ([10]; first compound 0.006325 µM): 0.998 | relative viability ([10]; first compound 0.02 µM): 1.09 | relative viability ([10]; first compound 0.06325 µM): 0.986 | relative viability ([10]; first compound 0.2 µM): 0.858 | relative viability ([11]; first compound 0.002 µM): 0.557 | relative viability ([11]; first compound 0.02 µM): 0.417 | relative viability ([11]; first compound 0.06325 µM): 0.172 | relative viability ([11]; first compound 0.2 µM): 0.164 | relative viability ([12]; first compound 0.002 µM): 0.714 | relative viability ([12]; first compound 0.006325 µM): 0.611 | relative viability ([12]; first compound 0.02 µM): 0.473 | relative viability ([12]; first compound 0.06325 µM): 0.716 | relative viability ([12]; first compound 0.2 µM): 0.413 | relative viability ([13]; first compound 0.002 µM): 0.221 | relative viability ([13]; first compound 0.006325 µM): 0.221 | relative viability ([13]; first compound 0.02 µM): 0.213 | relative viability ([13]; first compound 0.06325 µM): 0.253 | relative viability ([13]; first compound 0.2 µM): 0.11 | relative viability ([14]; first compound 0.002 µM): 0.305 | relative viability ([14]; first compound 0.006325 µM): 0.302 | relative viability ([14]; first compound 0.02 µM): 0.168 | relative viability ([14]; first compound 0.06325 µM): 0.106 | relative viability ([14]; first compound 0.2 µM): 0.127 | relative viability ([15]; first compound 0.002 µM): 0.51 | relative viability ([15]; first compound 0.006325 µM): 0.474 | relative viability ([15]; first compound 0.02 µM): 0.44 | relative viability ([15]; first compound 0.06325 µM): 0.462 | relative viability ([15]; first compound 0.2 µM): 0.373 | relative viability ([16]; first compound 0.002 µM): 0.577 | relative viability ([16]; first compound 0.006325 µM): 0.566 | relative viability ([16]; first compound 0.02 µM): 0.549 | relative viability ([16]; first compound 0.06325 µM): 0.144 | relative viability ([16]; first compound 0.2 µM): 0.134 | relative viability ([17]; first compound 0.002 µM): 0.412 | relative viability ([17]; first compound 0.006325 µM): 0.445 | relative viability ([17]; first compound 0.02 µM): 0.366 | relative viability ([17]; first compound 0.06325 µM): 0.265 | relative viability ([17]; first compound 0.2 µM): 0.289 | relative viability ([18]; first compound 0.002 µM): 0.543 | relative viability ([18]; first compound 0.006325 µM): 0.495 | relative viability ([18]; first compound 0.02 µM): 0.424 | relative viability ([18]; first compound 0.06325 µM): 0.398 | relative viability ([18]; first compound 0.2 µM): 0.31 | relative viability ([19]; first compound 0.002 µM): 0.135 | relative viability ([19]; first compound 0.006325 µM): 0.132 | relative viability ([19]; first compound 0.02 µM): 0.102 | relative viability ([19]; first compound 0.06325 µM): 0.0751 | relative viability ([19]; first compound 0.2 µM): 0.0736 | relative viability ([20]; first compound 0.002 µM): 1.04 | relative viability ([20]; first compound 0.006325 µM): 1.01 | relative viability ([20]; first compound 0.02 µM): 1.02 | relative viability ([20]; first compound 0.06325 µM): 0.269 | relative viability ([20]; first compound 0.2 µM): 0.227 | relative viability ([21]; first compound 0.002 µM): 0.848 | relative viability ([21]; first compound 0.006325 µM): 0.937 | relative viability ([21]; first compound 0.02 µM): 0.764 | relative viability ([21]; first compound 0.06325 µM): 0.861 | relative viability ([21]; first compound 0.2 µM): 0.411 | relative viability ([22]; first compound 0.002 µM): 0.691 | relative viability ([22]; first compound 0.006325 µM): 0.655 | relative viability ([22]; first compound 0.02 µM): 0.622 | relative viability ([22]; first compound 0.06325 µM): 0.316 | relative viability ([22]; first compound 0.2 µM): 0.278

Source: the supplement of paper PMC10307832
